Measurements: patent US20140303164A1, “THERAPEUTIC COMPOUNDS” (Gilead Sciences, Inc., priority 2013, published 2014)

What was measured:
HIV-IIIb = assay: Test A: Antiviral Assay in MT4 Cells; type: cell-based, HIV-1; details: Human immunodeficiency virus 1, IIIB, MT4, 120 h; for inhibition at 0.2 µM: read-out: % inhibition at 0.2 μM; for inhibition at 2 µM: read-out: % inhibition at 2 μM
Procedure: Test A: Antiviral Assay in MT4 Cells
MT-4 cells were next mixed with HIV-IIIb at an m.o.i of 0.003 for 1 hour, after which time 35 μL of virus/cell mixture (2000 cells) was immediately added to each well containing 40 μL of diluted compound. The plates were then incubated at 37° C. for 5 days. […] Cell lysis was carried out by incubating at room temperature for 10 min and then chemiluminescence was read.

[1] = Test B: Cytotoxicity Assay; type: cell-based; details: human, uninfected MT-4 cells, same protocol as Test A
Method in brief: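 Uninfected MT-4 cells (2000 per well) incubated with diluted compound at 37° C. for 5 days, following the antiviral protocol without HIV-IIIb.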

| Compound | inhibition at 0.2 µM (HIV-IIIb) | inhibition at 2 µM (HIV-IIIb) | CC50 at 5 days [1] |
| --- | --- | --- | --- |
| Cn1nc(NS(C)(=O)=O)c2c(Cl)ccc(-c3cc(-c4ccccc4Cl)cnc3[C@H](Cc3cc(F)cc(F)c3)NC(=O)Cn3nc(C(F)F)c4c3C(F)(F)[C@@H]3C[C@H]43)c21 [Compound 181C, N—((S)-1-(3-(4-chloro-1-methyl-3-(methylsulfonamido)-1H-indazol-7-yl)-5-(2-chlorophenyl)pyridin-2-yl)-2-(3,5-difluorophenyl)ethyl)-2-((3b-S,4aR)-3-(difluoromethyl)-5,5-difluoro-3b,4,4a,5-tetrahydro-1H-cyclopropa[3,4]cyclopenta[1,2-c]pyrazol-1-yl)acetamide] | 100% | 100% | > 53.2 µM |
| CNc1cc(-c2ccc(Cl)c3c(NS(C)(=O)=O)nn(C)c23)c([C@H](Cc2cc(F)cc(F)c2)NC(=O)Cn2nc(C(F)F)c3c2C(F)(F)[C@@H]2C[C@H]32)nc1C#CC(C)(C)O [Compound 182L, N—((S)-1-(3-(4-chloro-1-methyl-3-(methylsulfonamido)-1H-indazol-7-yl)-6-(3-hydroxy-3-methylbut-1-yn-1-yl)-5-(methylamino)pyridin-2-yl)-2-(3,5-difluorophenyl)ethyl)-2-((3b-S,4aR)-3-(difluoromethyl)-5,5-difluoro-3b,4,4a,5-tetrahydro-1H-cyclopropa[3,4]cyclopenta[1,2-c]pyrazol-1-yl)acetamide] | 100% | 100% | 9.83 µM |
| CN(C)c1cc(-c2ccc(Cl)c3c(NS(C)(=O)=O)nn(C)c23)c([C@H](Cc2cc(F)cc(F)c2)NC(=O)Cn2nc(C(F)F)c3c2C(F)(F)[C@@H]2C[C@H]32)nc1C#CC(C)(C)O [Compound 183F, N—((S)-1-(3-(4-chloro-1-methyl-3-(methylsulfonamido)-1H-indazol-7-yl)-5-(dimethylamino)-6-(3-hydroxy-3-methylbut-1-yn-1-yl)pyridin-2-yl)-2-(3,5-difluorophenyl)ethyl)-2-((3b-S,4aR)-3-(difluoromethyl)-5,5-difluoro-3b,4,4a,5-tetrahydro-1H-cyclopropa[3,4]cyclopenta[1,2-c]pyrazol-1-yl)acetamide] | 84% | 84% | 12.4 µM |
| Cn1nc(NS(C)(=O)=O)c2c(Cl)ccc(-c3ccc(C#CC(C)(O)CNC(=O)OC(C)(C)C)nc3[C@H](Cc3cc(F)cc(F)c3)NC(=O)Cn3nc(C(F)(F)F)c4c3C(F)(F)[C@@H]3C[C@H]43)c21 (stereo partly drawn) [Compound 184, tert-butyl (4-(5-(4-chloro-1-methyl-3-(methylsulfonamido)-1H-indazol-7-yl)-6-((S)-1-(2-((3bS,4aR)-5,5-difluoro-3-(trifluoromethyl)-3b,4,4a,5-tetrahydro-1H-cyclopropa[3,4]cyclopenta[1,2-c]pyrazol-1-yl)acetamido)-2-(3,5-difluorophenyl)ethyl)pyridin-2-yl)-2-hydroxy-2-methylbut-3-yn-1-yl)carbamate] | 90% | 90% | 7.69 µM |
| Cn1nc(NS(C)(=O)=O)c2c(Cl)ccc(-c3cc(-c4cccnc4)cnc3[C@H](Cc3cc(F)cc(F)c3)NC(=O)Cn3nc(C(F)F)c4c3C(F)(F)[C@@H]3C[C@H]43)c21 [Compound 185C, N—((S)-1-(5-(4-chloro-1-methyl-3-(methylsulfonamido)-1H-indazol-7-yl)-[3,3′-bipyridin]-6-yl)-2-(3,5-difluorophenyl)ethyl)-2-((3bS,4aR)-3-(difluoromethyl)-5,5-difluoro-3b,4,4a,5-tetrahydro-1H-cyclopropa[3,4]cyclopenta[1,2-c]pyrazol-1-yl)acetamide] | 89% | 89% | 18.2 µM |
| Cn1nc(NS(C)(=O)=O)c2c(Cl)ccc(-c3cc(C(N)=O)cnc3[C@H](Cc3cc(F)cc(F)c3)NC(=O)Cn3nc(C(F)F)c4c3C(F)(F)[C@@H]3C[C@H]43)c21 [Compound 186D, 5-(4-chloro-1-methyl-3-(methylsulfonamido)-1H-indazol-7-yl)-6-((S)-1-(2-((3bS,4aR)-3-(difluoromethyl)-5,5-difluoro-3b,4,4a,5-tetrahydro-1H-cyclopropa[3,4]cyclopenta[1,2-c]pyrazol-1-yl)acetamido)-2-(3,5-difluorophenyl)ethyl)nicotinamide] | 87% | 87% | 1.52 µM |
| Cn1nc(NS(C)(=O)=O)c2c(Cl)ccc(-c3ccc(C#CC(C)(C)O)nc3[C@H](Cc3cccc(F)c3)NC(=O)Cn3nc(C(F)(F)F)c4c3C(F)(F)[C@@H]3C[C@H]43)c21 [Compound 187G, N—((S)-1-(3-(4-chloro-1-methyl-3-(methylsulfonamido)-1H-indazol-7-yl)-6-(3-hydroxy-3-methylbut-1-yn-1-yl)pyridin-2-yl)-2-(3-fluorophenyl)ethyl)-2-((3b-S,4aR)-5,5-difluoro-3-(trifluoromethyl)-3b,4,4a,5-tetrahydro-1H-cyclopropa[3,4]cyclopenta[1,2-c]pyrazol-1-yl)acetamide] | 84% | 84% | 19.8 µM |
| Cn1nc(NS(C)(=O)=O)c2c(Cl)ccc(-c3ccc(C#CC(C)(C)O)nc3[C@H](Cc3cccc(F)c3)NC(=O)Cn3nc(C(F)F)c4c3C(F)(F)[C@@H]3C[C@H]43)c21 [Compound 188, N—((S)-1-(3-(4-chloro-1-methyl-3-(methylsulfonamido)-1H-indazol-7-yl)-6-(3-hydroxy-3-methylbut-1-yn-1-yl)pyridin-2-yl)-2-(3-fluorophenyl)ethyl)-2-((3b-S,4aR)-3-(difluoromethyl)-5,5-difluoro-3b,4,4a,5-tetrahydro-1H-cyclopropa[3,4]cyclopenta[1,2-c]pyrazol-1-yl)acetamide] | 92% | 92% | 26.3 µM |
| Cn1nc(NS(C)(=O)=O)c2c(Cl)ccc(-c3ccc(C#CC(C)(C)O)nc3[C@H](Cc3cc(F)cc(F)c3)NC(=O)Cn3nc(C(F)F)cc3C(F)F)c21 [Compound 189, (S)-2-(3,5-bis(difluoromethyl)-1H-pyrazol-1-yl)-N-(1-(3-(4 chloro-1-methyl-3-(methylsulfonamido)-1H-indazol-7-yl)-6-(3-hydroxy-3-methylbut-1-yn-1-yl)pyridin-2-yl)-2-(3,5-difluorophenyl)ethyl)acetamide] | 88% | 88% | 17.2 µM |
| Cn1nc(NS(C)(=O)=O)c2c(Cl)ccc(-c3ccc(C#CC(C)(C)O)nc3[C@H](Cc3cc(F)cc(F)c3)NC(=O)Cn3nc(C(F)(F)F)c4c3COCC4)c21 [Compound 190, (S)—N-(1-(3-(4 chloro-1-methyl-3-(methylsulfonamido)-1H-indazol-7-yl)-6-(3-hydroxy-3-methylbut-1-yn-1-yl)pyridin-2-yl)-2-(3,5-difluorophenyl)ethyl)-2-(3-(trifluoromethyl)-4,5-dihydropyrano[3,4-c]pyrazol-1(7H)-yl)acetamide] | 98% | 98% | 13.9 µM |
| Cn1nc(NS(C)(=O)=O)c2c(Cl)ccc(-c3ccc(C#CC(C)(C)O)nc3[C@H](Cc3cc(F)cc(F)c3)NC(=O)Cn3nc(C(F)(F)F)cc3C3CC3)c21 [Compound 191, (S)—N-(1-(3-(4 chloro-1-methyl-3-(methylsulfonamido)-1H-indazol-7-yl)-6-(3-hydroxy-3-methylbut-1-yn-1-yl)pyridin-2-yl)-2-(3,5-difluorophenyl)ethyl)-2-(5-cyclopropyl-3-(trifluoromethyl)-1H-pyrazol-1-yl)acetamide] | 91% | 91% | 10.1 µM |
| Cc1[nH]c2ccc(O)cc2c1CC(=O)N[C@@H](Cc1cc(F)cc(F)c1)c1nc(C#CC(C)(C)O)ccc1-c1ccc(Cl)c2c(NS(C)(=O)=O)nn(C)c12 [Compound 192, (S)—N-(1-(3-(4 chloro-1-methyl-3-(methylsulfonamido)-1H-indazol-7-yl)-6-(3-hydroxy-3-methylbut-1-yn-1-yl)pyridin-2-yl)-2-(3,5-difluorophenyl)ethyl)-2-(5-hydroxy-2-methyl-1H-indol-3-yl)acetamide] | 95% | 98% | 28.8 µM |
| Cn1nc(NS(C)(=O)=O)c2c(Cl)ccc(-c3ccc(C#CC(C)(C)O)nc3[C@H](Cc3cc(F)cc(F)c3)NC(=O)Cc3c[nH]c4ccc(F)cc34)c21 [Compound 193, (S)—N-(1-(3-(4 chloro-1-methyl-3-(methylsulfonamido)-1H-indazol-7-yl)-6-(3-hydroxy-3-methylbut-1-yn-1-yl)pyridin-2-yl)-2-(3,5-difluorophenyl)ethyl)-2-(5-fluoro-1H-indol-3-yl)acetamide] | 92% | 92% | 23.1 µM |
| COc1ccc2[nH]cc(CC(=O)N[C@@H](Cc3cc(F)cc(F)c3)c3nc(C#CC(C)(C)O)ccc3-c3ccc(Cl)c4c(NS(C)(=O)=O)nn(C)c34)c2n1 [Compound 194, (S)—N-(1-(3-(4 chloro-1-methyl-3-(methylsulfonamido)-1H-indazol-7-yl)-6-(3-hydroxy-3-methylbut-1-yn-1-yl)pyridin-2-yl)-2-(3,5-difluorophenyl)ethyl)-2-(5-methoxy-1H-pyrrolo[3,2-b]pyridin-3-yl)acetamide] | 84% | 99% | 21.3 µM |
| CC(C(=O)N[C@@H](Cc1cc(F)cc(F)c1)c1nc(C#CC(C)(C)O)ccc1-c1ccc(Cl)c2c(NS(C)(=O)=O)nn(C)c12)c1ccccc1 (stereo partly drawn) [Compound 195, N—((S)-1-(3-(4-chloro-1-methyl-3-(methylsulfonamido)-1H-indazol-7-yl)-6-(3-hydroxy-3-methylbut-1-yn-1-yl)pyridin-2-yl)-2-(3,5-difluorophenyl)ethyl)-2-phenylpropanamide] | 88% | 90% | 11.2 µM |
